Laboratory results from the NIST ThermoML archive (doi:10.1021/acs.jced.5b00051).

Assay: molar heat capacity at constant pressure
Settings: 101.33 kPa, Liquid, Large sample (1 g) DSC

CCOCCOCCO [3,6-dioxa-1-octanol]
Settings | molar heat capacity at constant pressure [J/K/mol]
275.15 K | 296.5
277.15 K | 296.8
279.15 K | 297.2
281.15 K | 297.6
283.15 K | 298
285.15 K | 298.5
287.15 K | 298.9
289.15 K | 299.4
291.15 K | 299.9
293.15 K | 300.4
295.15 K | 300.9
297.15 K | 301.4
298.15 K | 301.7
299.15 K | 301.9
301.15 K | 302.5
303.15 K | 303.1
305.15 K | 303.7
307.15 K | 304.3
309.15 K | 304.9
311.15 K | 305.5
313.15 K | 306.2
315.15 K | 306.9
317.15 K | 307.5
319.15 K | 308.2
321.15 K | 309
323.15 K | 309.7
325.15 K | 310.4
327.15 K | 311.2
329.15 K | 312
331.15 K | 312.8
333.15 K | 313.6
335.15 K | 314.4
337.15 K | 315.2
339.15 K | 316.1

COCCOCCOCCOCCO [3,6,9,12-tetraoxatridecanol]
Settings | molar heat capacity at constant pressure [J/K/mol]
275.15 K | 445.4
277.15 K | 445.6
279.15 K | 445.8
281.15 K | 446
283.15 K | 446.2
285.15 K | 446.5
287.15 K | 446.8
289.15 K | 447.1
291.15 K | 447.4
293.15 K | 447.7
295.15 K | 448.1
297.15 K | 448.4
298.15 K | 448.6
299.15 K | 448.8
301.15 K | 449.2
303.15 K | 449.6
305.15 K | 450
307.15 K | 450.5
309.15 K | 451
311.15 K | 451.5
313.15 K | 452
315.15 K | 452.5
317.15 K | 453
319.15 K | 453.6
321.15 K | 454.2
323.15 K | 454.8
325.15 K | 455.4
327.15 K | 456
329.15 K | 456.6
331.15 K | 457.3
333.15 K | 458
335.15 K | 458.7
337.15 K | 459.4
339.15 K | 460.1

CCCCCCCCOCCOCCOCCO [2-[2-[2-(octyloxy)ethoxy]ethoxy]ethanol]
Settings | molar heat capacity at constant pressure [J/K/mol]
275.15 K | 563.7
277.15 K | 564.5
279.15 K | 565.2
281.15 K | 566
283.15 K | 566.9
285.15 K | 567.7
287.15 K | 568.6
289.15 K | 569.5
291.15 K | 570.4
293.15 K | 571.3
295.15 K | 572.2
297.15 K | 573.2
298.15 K | 573.7
299.15 K | 574.2
301.15 K | 575.2
303.15 K | 576.2
305.15 K | 577.3
307.15 K | 578.4
309.15 K | 579.5
311.15 K | 580.6
313.15 K | 581.7
315.15 K | 582.9
317.15 K | 584.1
319.15 K | 585.3
321.15 K | 586.5
323.15 K | 587.7
325.15 K | 589
327.15 K | 590.3
329.15 K | 591.6
331.15 K | 592.9
333.15 K | 594.3
335.15 K | 595.6
337.15 K | 597
339.15 K | 598.4

CCCOCCO [2-propoxyethanol]
Settings | molar heat capacity at constant pressure [J/K/mol]
275.15 K | 231.6
277.15 K | 232.4
279.15 K | 233.3
281.15 K | 234.1
283.15 K | 235
285.15 K | 235.8
287.15 K | 236.6
289.15 K | 237.5
291.15 K | 238.3
293.15 K | 239.2
295.15 K | 240.1
297.15 K | 240.9
298.15 K | 241.4
299.15 K | 241.8
301.15 K | 242.7
303.15 K | 243.5
305.15 K | 244.4
307.15 K | 245.3
309.15 K | 246.2
311.15 K | 247.1
313.15 K | 248
315.15 K | 248.9
317.15 K | 249.8
319.15 K | 250.7
321.15 K | 251.6
323.15 K | 252.5
325.15 K | 253.4
327.15 K | 254.3
329.15 K | 255.2
331.15 K | 256.1
333.15 K | 257.1
335.15 K | 258
337.15 K | 258.9
339.15 K | 259.9
